# In ChEMBL document CHEMBL1129615, “Synthesis and quantitative structure-activity relationship of 17 beta-(hydrazonomethyl)-5 beta-androstane-3 beta,14 beta-diol derivatives that bind to Na+,K(+)-ATPase receptor” (J Med Chem, 1996):
# Experiments:
# [1] = Acid dissociation constant was determined; type: ADME
# [2] = molecular target: Sodium/potassium-transporting ATPase; test: Displacement of [3H]ouabain from dog kidney Na+/K+ ATPase; type: protein-complex assay, Canis lupus familiaris
SMILES,pKa [1],-Log IC50 [2]
C[C@]12CC[C@H](O)C[C@H]1CC[C@@H]1[C@@H]2CC[C@]2(C)[C@@H](/C=N/N=C(N)N)CC[C@]12O.Cl,9.35,7
CN1CCN=C1N/N=C/[C@H]1CC[C@]2(O)[C@@H]3CC[C@@H]4C[C@@H](O)CC[C@]4(C)[C@H]3CC[C@]12C,8.05,6
C/C(=N\N=C(N)N)[C@H]1CC[C@]2(O)[C@@H]3CC[C@@H]4C[C@@H](O)CC[C@]4(C)[C@H]3CC[C@]12C,9.49,6.7
C[C@]12CC[C@H](O)C[C@H]1CC[C@@H]1[C@@H]2CC[C@]2(C)[C@@H](/C=N/NC3=NC(=O)CN3)CC[C@]12O,3.58,4.7
C[C@]12CC[C@H](O)C[C@H]1CC[C@@H]1[C@@H]2CC[C@]2(C)[C@@H](/C=N/NC(N)=O)CC[C@]12O,1.78,5.1
C[C@]12CC[C@H](O)C[C@H]1CC[C@@H]1[C@@H]2CC[C@]2(C)[C@@H](/C=N/N=C(\N)S)CC[C@]12O,0.86,4.7
C[C@]12CC[C@H](O)C[C@H]1CC[C@@H]1[C@@H]2CC[C@]2(C)[C@@H](/C=N/NC3=NCCN3)CC[C@]12O,8.42,6.7
C[C@]12CC[C@H](O)C[C@H]1CC[C@@H]1[C@@H]2CC[C@]2(C)[C@@H](/C=N/NC3=NCCCN3)CC[C@]12O,10.4,6.6
C[C@]12CC[C@H](O)C[C@H]1CC[C@@H]1[C@@H]2CC[C@]2(C)[C@@H](/C=N/Nc3ccccn3)CC[C@]12O,6.34,5.7
C[C@]12CC[C@H](O)C[C@H]1CC[C@@H]1[C@@H]2CC[C@]2(C)[C@@H](/C=N/Nc3ncccn3)CC[C@]12O,3.44,4.6
CSC(=N)N/N=C/[C@H]1CC[C@]2(O)[C@@H]3CC[C@@H]4C[C@@H](O)CC[C@]4(C)[C@H]3CC[C@]12C,5.76,5.7
C[C@]12CC[C@H](O)C[C@H]1CC[C@@H]1[C@@H]2CC[C@]2(C)[C@@H](/C=N/N=C(\N)Nc3ccccc3)CC[C@]12O,8.62,5.2
C/N=C(\C[N+](=O)[O-])N/N=C/[C@H]1CC[C@]2(O)[C@@H]3CC[C@@H]4C[C@@H](O)CC[C@]4(C)[C@H]3CC[C@]12C,2.37,4.5
